Data on 39 compounds can be found in patent US7183411B2, “Naphthol, quinoline and isoquinoline-derived urea modulators of vanilloid VR1 receptor” (Janssen Pharmaceutica N.V., priority 2002, dated 2007).

Experiment [1] has as its target T1, human VR1 (Homo sapiens, UniProt Q8NER1).
T1 construct: expressed in transfected cells; host or cells: HEK293
The experiment can be described thus: Human VR1 functional assay (FLIPR intracellular Ca2+, capsaicin challenge). In kind it is cell-based. The settings on record: read-out: In vitro functional assays hIC50 or EC50. As to the method: The functional activity of the test compounds was determined by measuring changes in intracellular calcium concentration using a Ca^++-sensitive fluorescent dye and FLIPR™ technology.
HEK293 Cells expressing human VR1 were grown on poly-D-lysine coated 96 well black-walled plates (BD 354640) and 2 days later loaded with Fluo-3/AM for 1 hour and subsequently tested for agonist-induced increases in intracellular Ca^2+ levels using FLIPR™ technology. […] EC50 or IC50 values were determined from dose-response studies.

Experiment [2] addresses T2, human VR1 vanilloid receptors (Homo sapiens, UniProt Q8NER1).
T2 construct: expressed in transfected cells; host or cells: HEK293
Nature of the experiment: [3H] RTX binding assay, hVR1 membranes from transfected HEK293 cells. The note with it: for Ki: human VR1, read-out: Receptor binding Ki. As to the method: Compounds of the present invention were tested for their ability to inhibit the binding of [^3H] RTX to hVR1 receptors in a [^3H] RTX binding assay as previously described (Zhang, Sui-Po. Improved ligand binding assays for vanilloid receptors. PCT Int. Appl. (2002), 29 pp. CODEN: PIXXD2 WO 0233411 A1 20020425 AN 2002:315209; Grant, Elfrida R.; Dubin, Adrienne E.; Zhang, Sui-Po; Zivin, Robert A.; Zhong, Zhong Simultaneous intracellular calcium and sodium flux imaging in human vanilloid receptor 1 (VR1)-transfected human embryonic kidney cells: a method to resolve ionic dependence of VR1-mediated cell death. Journal of Pharmacology and Experimental Therapeutics (2002), 300(1), 9–17.)
HEK293 cells were transfected with human VR1 vanilloid receptors and washed with Hank's Balanced Salt Solution, dissociated with cell dissociation buffer (Sigma), and then centrifuged at 1000×g for 5 min. Cell pellets were homogenized in cold 20 mM HEPES buffer, pH 7.4, containing 5.8 mM NaCl, 320 mM sucrose, 2 mM MgCl2, 0.75 CaCl2 and 5 mM KCl and centrifuged at 1000×g for 15 min. The resultant supernate was then centrifuged at 40000×g for 15 min. The pelleted membranes were kept in an −80° C. freezer.
Approximately 120 μg protein/ml from membranes were incubated with indicated concentrations of [^3H] RTX in 0.5 ml of the HEPES buffer (pH 7.4) containing 0.25 mg/mL fatty acid-free bovine serum albumin at 37° C. for 60 min. The reaction mixture was then cooled to 4° C., 0.1 mg α1-acid glycoprotein added to each sample and incubated at 4° C. for 15 min. The samples were centrifuged at 18500×g for 15 min. The tip of the microcentrifuge tube containing the pellet was cut off. Bound radioactivity was quantified by scintillation counting. Non-specific binding was tested in the presence of 200 nM unlabeled RTX.

For experiment [3], the target named is T1, human VR1. The experiment can be described thus: Broadly stimulated recombinant human VR1 functional assay (Ca2+ influx, FLIPR). The format is cell-based.
The target of experiment [4] is recombinant rat VR1 (rVR1/HEK293) (Rattus norvegicus, UniProt O35433). The experiment can be described thus: Broadly stimulated recombinant rat VR1 functional assay (Ca2+ influx, FLIPR). The note with it: for IC50: recombinant rat VR1, Ca2+ influx.
From the text: In an effort to identify potent and efficacious antagonists at human and rat VR1 that were active under conditions simulating aspects of in vivo inflammation functional assays were developed using FLIPR to determine antagonist activity against endogenous activators and stimuli likely to be present in inflammation. Cell lines were constructed that stably expressed recombinant rat VR1 (rVR1/HEK293). Cells were exposed to various stimuli at their EC80, with the exception of the low pH and DTT stimuli.
These studies were corroborated and further studies were performed to confirm that the phorbol ester effect was not due to direct effects on the channel. […] Cells were challenged with 300 nM PMA (˜EC80) after 3 min in the indicated antagonist.
Cells were challenged with 5–10 mM DTT to stimulate VR1 after 3 min incubation in compound.
We performed assays similar to those described for the human recombinant receptor with the exception that a lower pH was required in the Ca^2+ influx assay at the rat recombinant receptor.
The mark [5] stands for this setting: recombinant human VR1, Ca2+ influx, stimulus 300 nM PMA, read-out: IC50, PKC phosphorylation.
[6] abbreviates: recombinant human VR1, Ca2+ influx, stimulus low pH (pH 6.5), read-out: IC50, Low pH.

Like-named read-outs stand apart in the source and are kept apart here.

Chain of recombinant rat VR1 (rVR1/HEK293) (O35433 whole entry): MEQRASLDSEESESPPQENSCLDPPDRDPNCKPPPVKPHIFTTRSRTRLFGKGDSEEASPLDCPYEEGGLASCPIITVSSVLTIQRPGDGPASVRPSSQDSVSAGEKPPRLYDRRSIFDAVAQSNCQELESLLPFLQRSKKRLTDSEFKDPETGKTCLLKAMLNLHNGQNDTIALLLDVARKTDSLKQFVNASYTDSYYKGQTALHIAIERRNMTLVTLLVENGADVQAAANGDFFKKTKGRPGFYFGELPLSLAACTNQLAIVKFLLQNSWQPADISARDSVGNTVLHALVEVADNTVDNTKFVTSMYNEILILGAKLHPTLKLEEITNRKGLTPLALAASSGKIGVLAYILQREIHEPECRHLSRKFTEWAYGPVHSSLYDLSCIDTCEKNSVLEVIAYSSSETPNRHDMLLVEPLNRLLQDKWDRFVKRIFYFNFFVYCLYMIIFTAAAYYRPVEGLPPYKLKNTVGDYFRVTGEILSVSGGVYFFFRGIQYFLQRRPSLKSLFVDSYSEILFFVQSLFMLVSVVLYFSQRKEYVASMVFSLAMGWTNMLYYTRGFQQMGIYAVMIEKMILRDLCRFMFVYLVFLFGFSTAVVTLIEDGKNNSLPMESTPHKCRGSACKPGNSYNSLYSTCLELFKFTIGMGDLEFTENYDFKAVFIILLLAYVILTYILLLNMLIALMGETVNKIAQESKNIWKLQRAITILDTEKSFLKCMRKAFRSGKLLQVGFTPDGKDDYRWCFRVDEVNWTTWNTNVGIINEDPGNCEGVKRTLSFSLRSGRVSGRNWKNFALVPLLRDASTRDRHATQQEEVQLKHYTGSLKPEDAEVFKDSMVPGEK
T1 sequence (Q8NER1 whole entry): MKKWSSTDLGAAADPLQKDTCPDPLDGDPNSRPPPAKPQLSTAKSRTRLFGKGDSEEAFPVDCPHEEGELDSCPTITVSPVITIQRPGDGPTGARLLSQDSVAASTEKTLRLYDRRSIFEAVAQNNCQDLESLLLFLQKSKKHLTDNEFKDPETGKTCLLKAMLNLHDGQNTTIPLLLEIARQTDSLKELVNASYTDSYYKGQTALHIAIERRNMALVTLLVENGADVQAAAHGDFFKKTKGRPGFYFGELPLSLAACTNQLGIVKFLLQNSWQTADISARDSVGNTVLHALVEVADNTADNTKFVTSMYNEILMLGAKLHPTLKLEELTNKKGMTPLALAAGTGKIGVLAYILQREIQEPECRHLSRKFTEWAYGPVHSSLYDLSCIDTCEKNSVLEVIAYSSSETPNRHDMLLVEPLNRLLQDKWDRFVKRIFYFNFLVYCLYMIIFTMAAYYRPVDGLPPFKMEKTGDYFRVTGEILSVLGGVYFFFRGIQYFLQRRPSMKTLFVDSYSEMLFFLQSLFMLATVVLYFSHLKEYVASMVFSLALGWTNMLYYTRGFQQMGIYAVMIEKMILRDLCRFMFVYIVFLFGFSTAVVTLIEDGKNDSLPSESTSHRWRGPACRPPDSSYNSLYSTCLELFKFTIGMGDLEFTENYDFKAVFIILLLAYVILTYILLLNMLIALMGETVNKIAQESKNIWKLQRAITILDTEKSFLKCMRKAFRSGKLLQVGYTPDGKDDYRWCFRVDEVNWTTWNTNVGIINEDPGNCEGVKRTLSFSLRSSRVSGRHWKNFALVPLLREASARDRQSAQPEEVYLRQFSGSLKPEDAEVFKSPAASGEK
T2 sequence (Q8NER1 whole entry): as above

In the case of `Cc1cc2c(NC(=O)NCc3ccc(Cl)c(Cl)c3)cccc2cn1` [Compound 8], on human VR1 [1], the IC50 or EC50 turned out to be 18 nM. Also, the Ki (in general, a dissociation constant, usually derived from enzyme kinetics or from competition with a known ligand) in experiment [2] is 12.9 nM.

For the compound `O=C(NCc1ccccc1)Nc1cccc2ccc(O)cc12` [Compound 18], the IC50 or EC50 on human VR1 [1] was 45 nM. Besides, in experiment [2], the Ki came to 93.5 nM.

Take `CCCCCCCCCCCCCC(=O)O[C@@H]1[C@@H](C)[C@@]2(O)[C@@H](C=C(CO)C[C@]3(O)C(=O)C(C)=C[C@@H]23)[C@@H]2C(C)(C)[C@]12OC(C)=O` [PMA, phorbol-12-myristate-13-acetate]: the 50% effective concentration (EC50) – broadly, the concentration needed to bring the measured effect to its halfway point – was 90 nM at human VR1 [3] (agonist at human recombinant VR1, read-out: EC50 (increase in intracellular Ca2+)) and 90 nM in experiment [4] (read-out: EC50 (increase in intracellular Ca2+), agonist at rat recombinant VR1).

`COc1ccc(CNC(=O)Nc2cccc3cnccc23)cc1` [Compound 37]: the IC50 or EC50 on human VR1 [1] stood at 45 nM. Also, the Ki in experiment [2] was 193 nM.

For the compound `O=C(NCc1ccc(C(F)(F)F)nc1)Nc1cccc2ccc(O)cc12` [Compound 29], on human VR1 [1], the IC50 or EC50 stood at 44 nM. In experiment [2], the inhibition constant Ki turned out to be 36.1 nM.

Consider `O=C(Nc1cccc2ccc(O)cc12)N(Cc1ccccc1)Cc1ccccc1` [Compound 25], for which, in experiment [2], the Ki was 3280 nM.

With `O=C(NCCc1ccc(Cl)c(Cl)c1)Nc1cccc2ccc(O)cc12` [Compound 27], the IC50 or EC50 on human VR1 [1] was 97 nM. Besides, the Ki in experiment [2] turned out to be 1.22 nM.

Consider `COc1ccc(C(CNC(=O)Nc2cccc3cnccc23)CC2CCCCC2)cc1` (stereo not drawn) [Compound 12], for which, in experiment [2], the Ki was 5.62 nM.

As for `O=C(NCc1ccc(Cl)cc1Cl)Nc1cccc2ccc(O)cc12` [Compound 47], the Ki in experiment [2] was 2.79 nM.

On to `O=C(NCc1ccc(C(F)(F)F)cc1)Nc1cccc2cncc(Cl)c12` [Compound 59], for which, in experiment [2], the Ki was 7340 nM.

As to `Cc1cc2c(NC(=O)NCc3cccc(C(F)(F)F)c3)cccc2cn1` [Compound 9], the IC50 or EC50 on human VR1 [1] worked out at 9.4 nM. The Ki in experiment [2] came out at 39 nM.

Consider `O=C(NCc1nc2ccccc2[nH]1)Nc1cccc2ccc(O)cc12` [Compound 32], for which the Ki in experiment [2] was found to be 2540 nM.

`O=C(NCCc1ccc(OC(F)(F)F)cc1)Nc1cccc2cnccc12` [Compound 38]: the IC50 or EC50 at human VR1 [1] is 11 nM. For the same compound, the Ki in experiment [2] was determined as 6.03 nM.

As to `O=C(NCc1cccnc1)Nc1cccc2ccc(O)cc12` [Compound 15], the IC50 or EC50 at human VR1 [1] came to 3700 nM. For the same compound, in experiment [2] (human VR1, 1 μM compound, read-out: Receptor binding % Inhibition @ 1 μM), the inhibition (as a rule, the change of the read-out against control, counted positive when it falls) at 1 µM came to 11%.

For `O=C(NCc1ccc(F)c(F)c1)Nc1cccc2ccc(O)cc12` [Compound 42], the Ki in experiment [2] was determined as 7.22 nM.

As for `CC(C)(C)c1ccc(CCNC(=O)Nc2cccc3cnccc23)cc1` [Compound 35], the IC50 or EC50 at human VR1 [1] is 5.8 nM. Also, in experiment [2], the Ki worked out at 1.3 nM.

As for `O=C(NCCc1ccc(C(F)(F)F)cc1)Nc1cccc2cnccc12` [Compound 36], in experiment [2], the Ki was 22.4 nM.

As to `O=C(NCc1ccc(OC(F)(F)F)cc1)Nc1cccc2cnccc12` [Compound 22], at human VR1 [1], the IC50 or EC50 came to 3.3 nM. Also, the Ki in experiment [2] came out at 1.28 nM.

Turning to `COc1ccc(CCNC(=O)Nc2cccc3cnccc23)cc1` [Compound 21], the IC50 or EC50 at human VR1 [1] turned out to be 680 nM. Also, the Ki in experiment [2] came to 1290 nM.

As to `O=C(NCCc1cccc(C(F)(F)F)c1)Nc1cccc2cnccc12` [Compound 2], the IC50 or EC50 on human VR1 [1] is 19 nM. Moreover, in experiment [2], the inhibitory constant (Ki) was 41.2 nM.

As for `CN(CC1CCCCC1)c1ccc(CNC(=O)Nc2cnc3ccccc3c2)cc1` [Compound 65], the IC50 or EC50 on human VR1 [1] was 10000 nM. The Ki in experiment [2] is 129 nM.

On to `Oc1cc2c(cc1O)CN(C(=S)NCCc1ccc(Cl)cc1)CCC2` [Capsazepine, capsazepine], for which the IC50 on human VR1 [3] (human recombinant receptor, FIG. 1, read-out: potency to inhibit Ca2+ activity induced by the panel of stimuli) was 100 to 300 nM; on human VR1 [3] (recombinant human VR1, Ca2+ influx, PMA at low pH, read-out: IC50, PKC phosphorylation at low pH) it was 370 nM; on human VR1 [3] (setting [5]) it was 160 nM; on human VR1 [3] (setting [6]) it was 110 nM; in experiment [4] (IC50, Anandamide, stimulus anandamide 10 μM) it was 1.3 µM; in experiment [4] (IC50, Low pH, stimulus low pH (pH 5.9)) it was 5 µM. Moreover, the IC50 in experiment [4] (IC50, PKC phosphorylation at low pH, PMA at low pH) is 10 µM; in experiment [4] (IC50, PKC phosphorylation, stimulus 300 nM PMA) it was 10 µM.

Consider `O=C(NCc1ccc(Cl)cc1)Nc1cccc2cnccc12` [Compound 6], for which the IC50 or EC50 at human VR1 [1] was 5.6 nM. Besides, the Ki in experiment [2] amounted to 31 nM.

For `O=C(NCc1cc(C(F)(F)F)cc(C(F)(F)F)c1)Nc1cccc2ccc(O)cc12` [Compound 58], the inhibitory constant (Ki) in experiment [2] worked out at 5.16 nM.

With `O=C(NCCc1ccccc1)Nc1cccc2ccc(O)cc12` [Compound 23], the Ki in experiment [2] was 53.5 nM.

In the case of `CC(C)(C)c1ccc(CNC(=O)Nc2cccc3ccc(O)cc23)cc1` [Compound 13], on human VR1 [1], the IC50 or EC50 was 20 nM. The Ki in experiment [2] is 0.12 nM.

With `O=C(NCc1ccc(OC(F)(F)F)cc1)Nc1cccc2ccc(O)cc12` [Compound 16], the IC50 or EC50 at human VR1 [1] stood at 27 nM. The Ki in experiment [2] is 0.11 nM.

Regarding `O=C(NCCc1ccc(Cl)c(Cl)c1)Nc1cccc2cnccc12` [Compound 1], the IC50 or EC50 at human VR1 [1] amounted to 8 nM. In experiment [2], the Ki is 12.6 nM.

`O=C(NCc1ccc(Cl)cc1)Nc1cccc2ccc(O)cc12` [Compound 14]: the IC50 or EC50 at human VR1 [1] amounted to 4.9 nM. Moreover, the Ki in experiment [2] worked out at 3.27 nM.

`OO` [Compound H2O2, H2O2]: at human VR1 [3] (VR1/HEK cells, species not stated), the “EC80 for H2O2-induced Ca2+ flux” value amounted to 0.015 % H2O2.

In the case of `Cl.Cl.Cl.Cl.Cl.Cl.N.N.N.N.N.N.N.N.N.N.N.N.N.N.[O-2].[O-2].[Ru+3].[Ru+3].[Ru+4]` [Ruthenium Red, ruthenium red], the IC50 came to 500 nM on human VR1 [3] (setting [5]); 500 nM at human VR1 [3] (setting [6]); 1.86 µM in experiment [4] (read-out: IC50, Anandamide, stimulus anandamide 10 μM); 0.3 µM in experiment [4] (read-out: IC50, PKC phosphorylation, stimulus 300 nM PMA).

Turning to `O=C(NCc1ccc(Cl)c(Cl)c1)Nc1cccc2cnccc12` [Compound 5], at human VR1 [1], the IC50 or EC50 was found to be 4 nM. In addition, the Ki in experiment [2] came out at 8.87 nM.

Regarding `CCCCC/C=C\C/C=C\C/C=C\C/C=C\CCCC(=O)NCCO` [anandamide, Anandamide], the EC50 on human VR1 [3] came out at 3000 nM; in experiment [4], 5000 nM.

`CN(Cc1ccc(Cl)c(Cl)c1)C(=O)Nc1cccc2ccc(O)cc12` [Compound 30]: the Ki in experiment [2] was determined as 581 nM.

Regarding `O=C(NCCc1ccc(Cl)cc1)Nc1cccc2cnccc12` [Compound 3], the IC50 or EC50 at human VR1 [1] is 36 nM. Besides, the Ki in experiment [2] came to 88.7 nM.

On to `O=C(NCc1ccc(Cl)c(Cl)c1)Nc1cccc2ccc(O)cc12` [Compound 31], for which the IC50 or EC50 at human VR1 [1] was found to be 15 nM. Besides, the Ki in experiment [2] stood at 2.03 nM.

In the case of `O=C(NCc1cccc(C(F)(F)F)c1)Nc1cccc2cnccc12` [Compound 7], the IC50 or EC50 at human VR1 [1] stood at 11 nM. Also, the Ki in experiment [2] is 22.7 nM.

In the case of `CN(Cc1ccccc1)C(=O)Nc1cccc2ccc(O)cc12` [Compound 26], the IC50 or EC50 on human VR1 [1] was found to be 10000 nM. Also, the Ki in experiment [2] was 18600 nM.

Regarding `O=C(NCc1cccc(C(F)(F)F)c1)Nc1cccc2ccc(O)cc12` [Compound 19], the IC50 or EC50 at human VR1 [1] came to 26 nM. Also, the Ki in experiment [2] amounted to 0.38 nM.
